Measurements reported in patent publication US12624044B2, “SMARCA degraders and uses thereof” (Kymera Therapeutics, Inc., priority 2019, dated 2026).

Experiments:
SMARCA2 [1] = biological target: T1, SMARCA2 (Homo sapiens, UniProt P51531); experiment: SMARCA2 Western blot MV4-11 degradation; type: cell-based; settings: 24 h; for Dmax: MV4-11, MV4-11 cells, read-out: SMARCA2 WB MV411 degradation 24 h: Average Dmax %; for DC50: MV4-11 cells, read-out: SMARCA2 WB MV411 degradation 24 h: Average external-Abs DC50
T1 sequence (P51531 whole entry): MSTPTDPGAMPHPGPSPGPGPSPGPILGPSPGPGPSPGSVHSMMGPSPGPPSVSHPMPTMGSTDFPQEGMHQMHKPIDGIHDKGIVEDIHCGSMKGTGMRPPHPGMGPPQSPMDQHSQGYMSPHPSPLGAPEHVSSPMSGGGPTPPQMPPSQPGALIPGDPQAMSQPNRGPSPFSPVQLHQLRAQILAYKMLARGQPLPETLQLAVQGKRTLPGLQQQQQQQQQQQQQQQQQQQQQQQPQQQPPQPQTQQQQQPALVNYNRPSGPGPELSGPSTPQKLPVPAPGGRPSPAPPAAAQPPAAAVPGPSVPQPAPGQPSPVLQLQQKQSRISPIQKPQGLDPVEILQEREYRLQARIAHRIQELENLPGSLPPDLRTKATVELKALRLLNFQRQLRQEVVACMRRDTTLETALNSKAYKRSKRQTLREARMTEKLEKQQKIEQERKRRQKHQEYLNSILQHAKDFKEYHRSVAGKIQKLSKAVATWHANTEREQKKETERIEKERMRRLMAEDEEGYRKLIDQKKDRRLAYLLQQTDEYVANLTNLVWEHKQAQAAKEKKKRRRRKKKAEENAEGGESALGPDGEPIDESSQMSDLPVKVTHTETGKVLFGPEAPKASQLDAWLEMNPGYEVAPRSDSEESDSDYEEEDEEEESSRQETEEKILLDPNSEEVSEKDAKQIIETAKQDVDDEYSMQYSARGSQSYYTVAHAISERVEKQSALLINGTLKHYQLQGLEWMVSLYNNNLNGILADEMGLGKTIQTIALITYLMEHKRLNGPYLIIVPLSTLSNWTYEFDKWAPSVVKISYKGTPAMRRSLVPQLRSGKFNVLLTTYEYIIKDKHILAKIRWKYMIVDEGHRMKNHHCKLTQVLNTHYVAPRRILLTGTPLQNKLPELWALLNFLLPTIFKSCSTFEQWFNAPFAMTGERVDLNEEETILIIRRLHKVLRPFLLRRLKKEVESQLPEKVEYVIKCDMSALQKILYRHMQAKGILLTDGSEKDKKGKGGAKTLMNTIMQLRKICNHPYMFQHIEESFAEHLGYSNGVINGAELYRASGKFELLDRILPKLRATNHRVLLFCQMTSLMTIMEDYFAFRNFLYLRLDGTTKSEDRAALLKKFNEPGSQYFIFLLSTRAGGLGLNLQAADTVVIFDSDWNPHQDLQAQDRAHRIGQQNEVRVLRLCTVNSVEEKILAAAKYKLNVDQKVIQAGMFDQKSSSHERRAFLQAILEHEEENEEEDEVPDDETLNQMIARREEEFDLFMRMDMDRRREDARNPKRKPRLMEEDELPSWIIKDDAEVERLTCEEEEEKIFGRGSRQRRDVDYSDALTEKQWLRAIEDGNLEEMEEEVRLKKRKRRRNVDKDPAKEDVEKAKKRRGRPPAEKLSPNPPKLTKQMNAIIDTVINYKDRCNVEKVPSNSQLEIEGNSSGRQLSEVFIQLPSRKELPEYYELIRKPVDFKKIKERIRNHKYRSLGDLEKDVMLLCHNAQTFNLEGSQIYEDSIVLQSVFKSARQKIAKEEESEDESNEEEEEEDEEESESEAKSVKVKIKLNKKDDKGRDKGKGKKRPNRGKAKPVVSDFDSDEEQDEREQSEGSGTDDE
In short: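 MV4-11 cells treated with compound for 24 h, lysed in RIPA with protease/phosphatase inhibitors, and SMARCA2 and SMARCA4 (BRG1) levels assessed by Western blot with β-actin loading control and LI-COR fluorescent read-out. Maximal degradation (Dmax %) after 24 h binned into letter codes.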

SMARCA2 [2] = biological target: T1, SMARCA2; experiment: MSD SMARCA2 degradation in A549 cell line; type: cell-based; settings: 24 h; for Dmax: A549, A549 cells; for DC50: A549 cells, read-out: SMARCA2 MSD A549 degradation 24 h: Average external-Abs DC50
In short: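 A549 cells treated 24 h with compound at final 0.152-1000 nM (3-fold series, DMSO control). Lysates analyzed by MSD immunoassay using anti-SMARCA2/BRM detection and SULFO-TAG secondary antibodies; maximal degradation (Dmax %) reported as letter bins.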

| SMILES | Dmax (SMARCA2 [1]) [%] | DC50 (SMARCA2 [1]) [nM] | Dmax (SMARCA2 [2]) [%] | DC50 (SMARCA2 [2]) [nM] |
| --- | --- | --- | --- | --- |
| Cc1ncsc1-c1ccc(CNC(=O)[C@@H]2C[C@@H](O)CN2C(=O)[C@@H](NC(=O)[C@H]2CC[C@@H](CN3CCC(n4cc(-c5cc(-c6ccccc6O)nnc5N)cn4)CC3)CC2)C(C)(C)C)cc1 [I-402] | 70 to 90 | < 100 | 70 to 90 | 100 to 500 |
| Cc1ncsc1-c1ccc(CNC(=O)[C@@H]2C[C@@H](O)CN2C(=O)[C@@H](NC(=O)[C@H]2CC[C@H](CN3CCC(n4cc(-c5cc(-c6ccccc6O)nnc5N)cn4)CC3)CC2)C(C)(C)C)cc1 [I-403] | 70 to 90 | < 100 | > 90 | 100 to 500 |
| Cn1c(=O)n(C2CCC(=O)NC2=O)c2ccc(CCCCCCCc3nccc(N4C5CCC4CN(c4cc(-c6ccccc6O)nnc4N)C5)n3)cc21 (stereo not drawn) [I-287, 3-(5-(7-(4-(3-(3-amino-6-(2-hydroxyphenyl)pyridazin-4-yl)-3,8-diazabicyclo[3.2.1]octan-8-yl)pyrimidin-2-yl)heptyl)-3-methyl-2-oxo-2,3-dihydro-1H-benzo[d]imidazol-1-yl)piperidine-2,6-dione] | 70 to 90 | < 100 | 70 to 90 | 100 to 500 |
| Cc1ncsc1-c1ccc(CNC(=O)[C@@H]2C[C@@H](O)CN2C(=O)[C@@H](NC(=O)[C@H]2CC3(C2)C[C@H](N2CCC(n4cc(-c5cc(-c6ccccc6O)nnc5N)cn4)CC2)C3)C(C)(C)C)cc1 (stereo partly drawn) [I-389] | 70 to 90 | < 100 | > 90 | 100 to 500 |
| Cc1ncsc1-c1ccc(CNC(=O)[C@@H]2C[C@@H](O)CN2C(=O)[C@@H](NC(=O)[C@H]2CC[C@@H](c3cnc(N4C5CCC4CN(c4cc(-c6ccccc6O)nnc4N)C5)nc3)CC2)C(C)(C)C)cc1 [I-336] | > 90 | < 100 | > 90 | 100 to 500 |
| Cc1ncsc1-c1ccc(CNC(=O)[C@@H]2C[C@@H](O)CN2C(=O)[C@@H](NC(=O)[C@H]2CC[C@H](c3cnc(N4C5CCC4CN(c4cc(-c6ccccc6O)nnc4N)C5)nc3)CC2)C(C)(C)C)cc1 [I-337, (2S,4R)-1-((2S)-2-((1r,4S)-4-(2-(3-(3-amino-6-(2-hydroxyphenyl)pyridazin-4-yl)-3,8-diazabicyclo[3.2.1]octan-8-yl)pyrimidin-5-yl)cyclohexanecarboxamido)-3,3-dimethylbutanoyl)-4-hydroxy-N-(4-(4-methylthiazol-5-yl)benzyl)pyrrolidine-2-carboxamide] | > 90 | < 100 | > 90 | < 100 |
